Data: patent publication US11084826B2, “RSV antiviral pyrazolo- and triazolo-pyrimidine compounds” (Janssen Sciences Ireland Unlimited Company, priority 2015, dated 2021)

Columns and labels:
[1] = Cytotoxicity in HeLa cells, ATP content measured with the ATPlite kit; type: cell-based; conditions: human, TOX HELA pCC50
Experimental: (§1) Black 384-well clear-bottom microtiter plates (Corning, Amsterdam, The Netherlands) were filled via acoustic drop ejection using the echo liquid handler (Labcyte, Sunnyvale, Calif.). 200 nL of compound stock solutions (100% DMSO) were transferred to the assay plates. 9 serial 4-fold dilutions of compound were made, creating per quadrant the same compound concentration. The assay was initiated by adding 10 μL of culture medium to each well (RPMI medium without phenol red, 10% FBS-heat inactivated, 0.04% gentamycin (50 mg/mL). All addition steps are done by using a multidrop dispenser (Thermo Scientific, Erembodegem, Belgium). Next, rgRSV224 virus (MOI=1) diluted in culture medium was added to the plates. rgRSV224 virus is an engineered virus that includes an additional GFP gene (Hallak LK, Spillmann D, Collins PL, Peeples Me. Glycosaminoglycan sulfation requirements for respiratory syncytial virus infection; Journal of virology (2000), 74(22), 10508-13) and was in-licensed from the NIH (Bethesda, Md., USA). Finally, 20 μL of a HeLa cell suspension (3,000 cells/well) were plated. Medium, virus- and mock-infected controls were included in each test. The wells contain 0.05% DMSO per volume. Cells were incubated at 37° C. in a 5% CO2 atmosphere. Three days post-virus exposure, viral replication was quantified by measuring GFP expression in the cells by an in house developed MSM laser microscope (Tibotec, Beerse, Belgium). The EC50 was defined as the 50% inhibitory concentration for GFP expression. In parallel, compounds were incubated for three days in a set of white 384-well microtiter plates (Corning) and the cytotoxicity of compounds in HeLa cells was determined by measuring the ATP content of the cells using the ATPlite kit (Perkin Elmer, Zaventem, Belgium) according to the manufacturer's instructions. The CC50 was defined as the 50% concentration for cytotoxicity.

[2] = tested on: rgRSV224 virus; assay: Antiviral activity: inhibition of rgRSV224 (GFP-expressing RSV) replication in HeLa cells, GFP expression read-out; type: cell-based, respiratory syncytial virus (RSV); conditions: human respiratory syncytial virus, HeLa, read-out: RSV HELA pEC50, rgRSV224 virus (MOI=1) in HeLa cells, GFP read-out (converted)
Experimental: as §1

Structure (SMILES) | CC50 at 3 days [1] | EC50 [2] | melting point
C[C@@H]1CCCCCN1C(=O)c1cc(C2(C)COC2)n2nc(-c3ccc(-n4cc(C(=O)O)cn4)cc3F)cc2n1 (racemic) [Compound W36] | > 25.1 µM | 0.151 µM | 223.2 °C
CC1c2ccsc2CCN1C(=O)c1cc(C2(C)CC2)n2nc(-c3ccc(-n4cc(C(=O)O)cn4)cc3F)cc2n1 (racemic) [Compound W39] | 55 µM | 0.0282 µM | 265.13 °C
CCc1cc(C(=O)N2CCc3sccc3[C@H]2C)nc2cc(-c3ccc(-n4cc(C(=O)O)cn4)cc3F)nn12 (racemic) [Compound W40] | 36.3 µM | 0.0219 µM | 168.11 °C
CCc1cc(C(=O)N2CCn3cccc3C2C)nc2cc(-c3ccc(/C=C/C(=O)O)cc3F)nn12 (single isomer, unassigned) [Compound M44] | > 25.1 µM | 0.0182 µM | 127.94 °C
CCc1cc(C(=O)N2CCc3sccc3[C@H]2C)nc2cc(-c3cccc(/C=C/C(=O)O)c3F)nn12 (single isomer, unassigned) [Compound M49] | 41.7 µM | 0.01 µM | 262.19 °C
C[C@@H]1c2ccccc2CCN1C(=O)c1cc(C2CC2)n2nc(-c3ccc(C4C[C@H]4C(=O)O)cc3F)cc2n1 (single isomer, unassigned) [Compound O5] | 55 µM | 0.011 µM | 222.18 °C
C[C@@H]1CCCCCN1C(=O)c1cc(C2CC2)n2nc(-c3ccc(C4C[C@H]4C(=O)O)cc3F)cc2n1 (single isomer, unassigned) [Compound O7] | 45.7 µM | 0.0398 µM | 245.75 °C
CC1c2ccsc2CCN1C(=O)c1cc(C2CC2)n2nc(-c3ccc(C4C[C@H]4C(=O)O)cc3F)cc2n1 (single isomer, unassigned) [Compound O20] | 52.5 µM | 0.00813 µM | 252.97 °C
CCc1cc(C(=O)N2CCc3sccc3C2C)nc2cc(-c3ccc(C4C[C@H]4C(=O)O)cc3F)nn12 (single isomer, unassigned) [Compound O22] | 47.9 µM | 0.00692 µM | 228.98 °C
CC1c2ccsc2CCN1C(=O)c1cc(C2CC2)n2nc(-c3ccc(N4CC[C@H](C(=O)O)C4)cc3F)cc2n1 (single isomer, unassigned) [Compound W37] | 45.7 µM | 0.00562 µM | 231.1 °C
CCc1cc(C(=O)N2CCc3sccc3C2C)nc2cc(-c3ccc(N4CC[C@H](C(=O)O)C4)cc3F)nn12 (single isomer, unassigned) [Compound W43] | 49 µM | 0.00275 µM | 252.56 °C
CCc1cc(C(=O)N2CCCCCC2C)nc2cc(-c3cccs3)nn12 (stereo not drawn) [Compound A1] | > 50.1 µM | 5.01 µM | 110 to 120 °C
CCc1cc(C(=O)N2CCCCCC2C)nc2cc(-c3ccccc3F)nn12 (stereo not drawn) [Compound A4] | 45.7 µM | 1.02 µM | 120 to 125 °C
CCc1cc(C(=O)N2CCCCCC2C)nc2cc(-c3ccc(N(C)C)cc3F)nn12 (stereo not drawn) [Compound A6] | 57.5 µM | 0.724 µM | 84 °C
CCc1cc(C(=O)N2CCCCCC2C)nc2cc(-c3ccc4[nH]ccc4c3)nn12 (stereo not drawn) [Compound A7] | > 25.1 µM | 0.589 µM | 195 to 197 °C
CCc1cc(C(=O)N2CCCCCC2C)nc2cc(-c3ccc4c(c3)CC(=O)N4)nn12 (stereo not drawn) [Compound A8] | > 25.1 µM | 0.646 µM | 230 to 235 °C
CCc1cc(C(=O)N2CCCCCC2C)nc2cc(-c3ccc4c(c3)CC(=O)N4C)nn12 (stereo not drawn) [Compound A9] | > 25.1 µM | 0.537 µM | 225 to 230 °C
CCc1cc(C(=O)N2CCCCCC2C)nc2cc(-c3ccc4c(c3)CCN4C)nn12 (stereo not drawn) [Compound A10] | > 25.1 µM | 2.09 µM | 155 °C
CCc1cc(C(=O)N2CCCCCC2C)nc2cc(-c3ccc4ncccc4c3)nn12 (stereo not drawn) [Compound A11] | > 25.1 µM | 0.646 µM | 170 to 175 °C
CCc1cc(C(=O)N2CCCCCC2C)nc2cc(-c3ccc4nc(C)ccc4c3)nn12 (stereo not drawn) [Compound A12] | > 25.1 µM | 0.871 µM | 195 to 200 °C
CCc1cc(C(=O)N2CCCCCC2C)nc2cc(-c3ccc4[nH]cnc4c3)nn12 (stereo not drawn) [Compound A13] | > 25.1 µM | 0.331 µM | 145 to 150 °C
